Assay results from article PMC9332213, “Simple Detection of DNA Methyltransferase with an Integrated Padlock Probe” (Biosensors, 2022).
pIC50: −log10 of the molar value.

Target: T1, M.SssI (Spiroplasma monobiae, UniProt P15840)
T1 construct: gene sssIM
Assay: padlock probe/RCA fluorescence methyltransferase activity assay with commercial M.SssI ([…] U/mL)
Assay type: biochemical

T1 sequence (P15840 whole entry): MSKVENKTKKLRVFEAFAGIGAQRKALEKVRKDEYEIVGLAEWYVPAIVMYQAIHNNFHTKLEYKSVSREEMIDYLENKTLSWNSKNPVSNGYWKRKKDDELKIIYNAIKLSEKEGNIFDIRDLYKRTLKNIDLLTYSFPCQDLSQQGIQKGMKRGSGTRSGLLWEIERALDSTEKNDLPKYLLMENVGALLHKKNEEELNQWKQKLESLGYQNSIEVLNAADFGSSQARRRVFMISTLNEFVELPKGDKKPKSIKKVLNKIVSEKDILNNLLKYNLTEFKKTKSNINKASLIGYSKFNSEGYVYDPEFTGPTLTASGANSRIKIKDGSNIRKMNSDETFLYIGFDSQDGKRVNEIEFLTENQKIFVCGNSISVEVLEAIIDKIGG

pIC50 | Compound
5.31 | Nc1ncn([C@@H]2O[C@H](CO)[C@@H](O)[C@H]2O)c(=O)n1 [5-Aza, 5-Azacytidine]
5.05 | O=c1[nH]cc(F)c(=O)[nH]1 [5-F, 5-fluorouracil]
